Measured values from ChEMBL document CHEMBL1201862, “PubChem BioAssay data set” (2004).
Activity calls are given as the source filed them.

How the values were obtained:
[1] = biological target: T1, Protein skinhead-1 (Caenorhabditis elegans, UniProt P34707); assay type: functional
T1 sequence (P34707 whole entry): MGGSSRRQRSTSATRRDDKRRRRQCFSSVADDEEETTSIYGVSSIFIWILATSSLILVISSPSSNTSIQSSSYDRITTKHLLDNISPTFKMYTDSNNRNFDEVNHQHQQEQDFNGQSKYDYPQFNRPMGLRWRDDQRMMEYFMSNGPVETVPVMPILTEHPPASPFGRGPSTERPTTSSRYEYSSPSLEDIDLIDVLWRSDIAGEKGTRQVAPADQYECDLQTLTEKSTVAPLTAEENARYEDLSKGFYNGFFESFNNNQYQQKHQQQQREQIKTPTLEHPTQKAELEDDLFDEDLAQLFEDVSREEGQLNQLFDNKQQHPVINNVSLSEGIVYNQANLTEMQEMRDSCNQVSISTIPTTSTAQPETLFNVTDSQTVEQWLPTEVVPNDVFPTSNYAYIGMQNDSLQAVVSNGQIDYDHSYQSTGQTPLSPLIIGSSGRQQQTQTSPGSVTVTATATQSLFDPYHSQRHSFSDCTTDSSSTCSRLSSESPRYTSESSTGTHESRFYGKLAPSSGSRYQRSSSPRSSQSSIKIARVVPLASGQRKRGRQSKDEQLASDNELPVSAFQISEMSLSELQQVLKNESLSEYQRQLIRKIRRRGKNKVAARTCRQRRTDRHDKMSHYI

[2] = biological target: Cytochrome P450 3A4 (Homo sapiens, UniProt P08684);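 also: CYP3A4 tested as one member of a cytochrome P450 panel screen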
[3] = biological target: Cytochrome P450 2C9 (Homo sapiens, UniProt P11712)
[4] = tested on: Streptococcus; assay: GAS UMAA2166 growth inhibition – luminescence, BacTiterGlo, counter-screen for streptokinase expression inhibitor project, dose response (AID 1915); assay type: functional, organism-based;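 also: potency for reduction of bacterial viability or growth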
[5] = biological target: T2, Streptokinase A (Streptococcus pyogenes serotype M1, UniProt P10520); assay: viability-normalized secreted streptokinase activity reduction – plasminogen activation absorbance, OD405, dose response (AID 1914); assay type: functional, Streptococcus pyogenes M1 GAS;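 also: secreted streptokinase activity via plasminogen activation per viability signal from cell pellet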
T2 sequence (P10520 whole entry): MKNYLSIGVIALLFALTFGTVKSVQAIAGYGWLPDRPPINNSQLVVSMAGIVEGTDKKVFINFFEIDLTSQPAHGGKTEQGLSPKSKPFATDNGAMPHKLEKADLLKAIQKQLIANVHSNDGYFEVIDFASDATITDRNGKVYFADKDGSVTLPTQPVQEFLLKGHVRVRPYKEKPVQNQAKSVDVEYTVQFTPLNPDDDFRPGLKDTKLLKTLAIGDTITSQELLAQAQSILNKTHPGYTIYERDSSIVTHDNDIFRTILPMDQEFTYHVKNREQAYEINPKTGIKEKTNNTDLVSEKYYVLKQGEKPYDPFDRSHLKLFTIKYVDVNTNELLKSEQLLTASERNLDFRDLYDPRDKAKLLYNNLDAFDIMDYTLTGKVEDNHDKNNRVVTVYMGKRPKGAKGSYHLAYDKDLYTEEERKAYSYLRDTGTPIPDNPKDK

[6] = viability of PTEN-deleted HCT116 cells – cell-based, HCT116 PTEN knockout, dose response (AID 1047); assay type: functional;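 also: HCT116 colon tumor cells with PTEN knocked out; cells exposed to compound for 60 hours before readout; potency for loss of cell viability measured by luminescence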
[7] = viability of HCT116 lacking mutant beta-catenin – cell-based, human colon tumor, dose response (AID 1045); assay type: functional;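 also: HCT116 colon tumor cells with beta catenin knocked out; cells exposed to compound for 60 hours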
[8] = Trypanosoma cruzi growth suppression in host cells – NIH3T3 host cells, beta-gal luminescence, confirmation (AID 2044); assay type: functional, cell-based;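 also: intracellular parasites grown in NIH/3T3 mouse fibroblasts as host cells; luminescent beta-galactosidase reporter signal from transgenic T. cruzi replicating inside host cells; inhibitors lower the luminescence signal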
[9] = tested on: Vero; assay: cells; assay type: functional; details: Chlorocebus sabaeus
[10] = NIH3T3 cell viability loss – ATP luminescence, mouse fibroblasts, counter-screen, dose response (AID 2010); assay type: functional, cell-based;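 also: cells exposed to compound for about 90 hours before reading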
[11] = biological target: T3, Ubiquitin-conjugating enzyme E2 N (Homo sapiens, UniProt P61088); assay type: functional;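 also: Dose-response confirmation in a TR-FRET assay detecting UBC13-driven polyubiquitin chain formation, inhibition measured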
T3 sequence (P61088 whole entry): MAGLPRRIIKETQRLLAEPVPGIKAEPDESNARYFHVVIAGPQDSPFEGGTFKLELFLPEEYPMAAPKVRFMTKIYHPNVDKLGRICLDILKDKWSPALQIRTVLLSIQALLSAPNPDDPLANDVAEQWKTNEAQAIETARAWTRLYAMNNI

Sequence of Cytochrome P450 2C9 (P11712 whole entry): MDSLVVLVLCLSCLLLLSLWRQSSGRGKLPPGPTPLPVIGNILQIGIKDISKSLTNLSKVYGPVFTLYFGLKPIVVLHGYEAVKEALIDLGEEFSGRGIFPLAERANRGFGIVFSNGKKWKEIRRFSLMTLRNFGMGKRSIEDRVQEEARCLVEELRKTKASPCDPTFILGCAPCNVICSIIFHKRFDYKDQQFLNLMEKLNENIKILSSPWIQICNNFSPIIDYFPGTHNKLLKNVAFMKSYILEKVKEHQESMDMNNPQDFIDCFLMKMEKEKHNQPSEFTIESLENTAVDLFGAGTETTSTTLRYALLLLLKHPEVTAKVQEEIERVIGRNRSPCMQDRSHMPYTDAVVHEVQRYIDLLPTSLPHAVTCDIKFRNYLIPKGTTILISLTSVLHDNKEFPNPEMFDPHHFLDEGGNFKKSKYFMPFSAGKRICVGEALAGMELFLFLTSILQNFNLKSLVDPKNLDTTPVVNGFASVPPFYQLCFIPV
Sequence of Cytochrome P450 3A4 (P08684 whole entry): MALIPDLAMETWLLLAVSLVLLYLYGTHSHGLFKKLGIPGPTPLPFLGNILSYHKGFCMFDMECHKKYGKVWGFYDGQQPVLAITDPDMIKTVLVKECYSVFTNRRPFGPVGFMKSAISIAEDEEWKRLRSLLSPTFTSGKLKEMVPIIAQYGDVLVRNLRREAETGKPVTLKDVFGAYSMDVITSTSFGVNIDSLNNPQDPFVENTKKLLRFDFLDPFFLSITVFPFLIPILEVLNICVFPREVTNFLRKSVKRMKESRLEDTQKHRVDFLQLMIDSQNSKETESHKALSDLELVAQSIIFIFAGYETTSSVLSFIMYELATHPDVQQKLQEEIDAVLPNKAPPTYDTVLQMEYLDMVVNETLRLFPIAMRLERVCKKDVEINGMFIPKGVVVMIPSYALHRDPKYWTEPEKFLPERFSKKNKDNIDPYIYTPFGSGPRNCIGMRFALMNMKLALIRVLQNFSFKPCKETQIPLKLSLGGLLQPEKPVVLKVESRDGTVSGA

For Cc1cc2ccccc2n1CCNC(=O)C1CC1, the IC50 [1] was > 100 µM (inactive).
With O=C(CSc1nnc(COc2cccc3ccccc23)o1)N1c2ccccc2CCc2ccccc21 the IC50 [1] was > 100 µM (inactive).
For CCc1sc(N(C(=O)Cc2ccccc2)c2cccc(F)c2)nc1-c1ccc(C)cc1, the AC50 [2] was 17.8 µM (inconclusive), the IC50 [1] was > 100 µM (inactive) and the AC50 [3] was 6.31 µM (inconclusive). The EC50 [4] was > 150 µM (not active) and the EC50 [5] was 32.6 µM (active).
With Cc1ccccc1OCc1nc2ccccc2c(=O)n1/N=C/c1c[nH]nc1-c1ccc(Br)cc1 the EC50 [6] was 7.05 µM (active) and the EC50 [7] was 7.51 µM (active).
In the case of CC1(Cc2cccc(C(F)(F)F)c2)C(=O)Nc2ccc(-c3ccc(F)c(Cl)c3)cc21 (stereo unspecified), the IC50 [1] is reported as > 100 µM (inactive).
For Cc1sc(NC(=O)c2ccco2)c(C(c2ccccc2)N2CCC(C)CC2)c1C (stereo unspecified), the EC50 [8] was 1.09 µM (active), the CC50 [9] was 14.1 µM (active) and the EC50 [10] was > 60 µM (not active).
In the case of O=C(CSc1nc[nH]n1)Nc1ccc(Cl)c(Cl)c1, the IC50 [1] is reported as > 100 µM (inactive).
With Cc1ccccc1Nc1nnc(SCC(=O)NC(=O)Nc2ccc3c(c2)OCCO3)s1 the EC50 [6] was 14.6 µM (active) and the EC50 [7] was 14.5 µM (active).
With CC1CCN(S(=O)(=O)c2ccc3c(c2)oc(=O)n3CC(=O)N2c3ccccc3CC2C)CC1 (stereo unspecified) the EC50 [6] was 39.5 µM (active) and the EC50 [7] was 30.9 µM (active).
For O=C(/C=C/c1ccncc1)c1ccc2c(c1)OCCO2, the CC50 [9] was > 25 µM (active).
With Cc1ccc(-c2noc(CCC(=O)NCC3CCN(Cc4cccc(C)c4)CC3)n2)cc1 the IC50 [11] was > 20 µM (inactive).
For COc1ccc(C=NN=C2c3ccccc3-c3ccccc32)cc1O, the CC50 [9] was > 25 µM (active).
